Measured values published in patent US10421743B2, “Tetrahydroisoquinolines as PRMT5 inhibitors” (CTXT PTY LTD, priority 2016, dated 2019).

Key:
[1] = target: Full-length (FL)-PRMT5-MEP50 enzyme complex (Homo sapiens (Human), UniProt O14744); assay: PRMT5-MEP50 Enzyme Methylation Assay (SAMDI); assay type: biochemical; settings: 0.5 nM PRMT5-MEP50, 75 nM biotinylated H4R3(Me1) peptide, 15 μM SAM, 150 minutes at 37° C.
Method: PRMT5-MEP50 Enzyme Methylation Assay
PRMT5/MEP50 biochemical assay is a direct measurement of the methylation activity of the enzyme complex on a short peptide substrate derived from the N-terminus of H4 histone. Methylation experiment is performed with recombinant protein. The assessment of inhibitory effect (IC50) of small molecules is measured by the effectiveness of the compounds to inhibit this reaction.
In this assay, the potency (IC50) of each compound was determined from a twenty-point (1:2 serial dilution; top compound concentration of 100000 nM) titration curve using the following outlined procedure. To each well of a white ProxiPlus 384 well-plate, 100 nL of compound (1% DMSO in final assay volume of 10 μL) was dispensed, followed by the addition of 8 μL of 1× assay buffer (50 mM Bicine pH 8.0, 1 mM DTT, 0.004% Tween20, 0.01% BSA) containing 0.5 nM of Full-length (FL)-PRMT5-MEP50 enzyme complex (recombinant proteins from baculovirus-transfected Sf21 cells: FL-PRMT5; MW=[…] and FL-MEP50; MW=38614). Plates were sealed and placed in a 37° C. humidified chamber for 30 minutes pre-incubation with compounds. Subsequently, each reaction was initiated by the addition of 2 μL 1× assay buffer containing 75 nM biotinylated H4R3(Me1) peptide, and 15 μM S-(5′-Adenosyl)-L-Methionine Chloride (SAM). The final reaction in each well of 10 μL consists of 0.5 nM PRMT5-MEP50,75 nM biotinylated-peptide, and 15 μM SAM. Methylation reactions were allowed to proceed for 150 minutes in a sealed plate at 37° C. Reactions were immediately quenched by the addition of 1 μL of 10% formic acid. Plates were then frozen and shipped to SAMDI™ Tech Inc. to determine the percent conversion from […]. IC50 values were determined by 7 parameters biphasic fit model plotting the percent product conversion vs. (Log10) compound concentrations.

[2] = system: PRMT5 (symmetrical dimethylation of arginine in TE11 cells); assay: PRMT5 Biomarker Assay (symmetrical dimethylation of arginine, Di-Methyl Histone H4 Arginine 3); assay type: cell-based; settings: Homo sapiens, TE-11, 72 hours incubation, anti-Di-Methyl Histone H4 Arginine 3 antibody
Method: Compounds of the Invention may be Tested for Potency to Inhibit Symmetrical Dimethylation of Arginine in the Following Assay:
The cell line TE11 was seeded at a density of 6,000 cells per well in 96 well optical quality tissue culture plates in DME medium and 10% foetal bovine serum, and allowed to adhere for 5 hours under standard culture conditions (37 degree Celsius, 5% CO2). Compound dilutions prepared in DMSO were added to the medium, with negative control wells reserved for treatment with DMSO only and maximum inhibition controls receiving a potent PRMT5 inhibitor compound at 1 μM concentration. After incubation for 72 hours, the cells were fixed with 3.7% formaldehyde in PBS for 30 minutes at room temperature, washed with phosphate buffer saline and blocked with Odyssey blocking buffer (LI-COR, Lincoln, Nebr.). Rabbit anti-Di-Methyl Histone H4 Arginine 3 specific antibody (Epigentek) in Odyssey blocking buffer was added and incubated for 14 hours at 4 degree Celsius. After washing, anti-rabbit secondary antibody labelled with Alexa647 dye (LifeTechnologies) and Hoechst 33342 (1 μg/mL, SigmaAldrich) were added for 1 hour incubation. Plates were washed and read on a PerkinElmer Envision 2103 in fluorescence intensity scanning mode (24 scans across the well area). The plates were imaged on a PerkinElmer Phenix high content imaging platform. Using a Columbus image analysis pipeline, individual nuclei were located by Hoechst 33342 stain and the methylation level was calculated from the Alexa647-related intensity in the same area. IC50 values were obtained from the mean Alexa647-related intensity per cell by calculating percent inhibition (% I) for each well relative to controls on the same plate (% I=(I−CN)/(CP−CN) where CN/CP are the averages of the negative/maximum inhibition controls, respectively), then fitting the % I data vs. compound concentration [I] to % I=(A+((B−A)/(1+((C/[I])^D)))) where A is the lower asymptote, B is the upper asymptote, C is the IC50 value, and D is the slope.

[3] = system: PRMT5 (symmetric dimethylation of arginine (SDMA) in MCF-7 cells); assay: PRMT5 Cell Target Engagement (TE) Assay (SDMA, high content imaging); assay type: cell-based; settings: Homo sapiens, MCF7, 72 h, treated for 3 days, top compound concentration of 10000 nM
Text: PRMT5 Cell Target Engagement (TE) Assay
The PRMT5 TE assay is a biomarker assay for identifying compounds that inhibit symmetric dimethylation of arginine (SDMA) of PRMT5 substrates. This assay detects symmetrically dimethylated nuclear proteins using high content imaging technology. Detection of the expression of symmetrically dimethylated nucleo proteins is through a mixture of primary rabbit monoclonal antibodies to SDMA (CST 13222), which in turn recognized by an Alexafluor 488 dye-conjugated anti-rabbit IgG secondary antibody. The IN Cell Analyzer 2200 measures nuclear Alexafluor 488 fluorescent dye intensity that is directly related to the level of expression of symmetrically dimethylated nuclear proteins at the single cell level. Nuclear AF488 dye intensities are compared to the mean value for DMSO treated cells […] to report percent of inhibition for each compound-treated well.
In this assay, the cell potency (EC50) of each compound was determined from a ten point (1:3 serial dilution; top compound concentration of 10000 nM) titration curve using the following outlined procedure. Each well of a BD falcon collagen coated black/clear bottom 384-well plate was seeded with 4000 MCF-7 cells and allowed to attach for 5 hours. Media from cell plate was removed at 0.5 mm above the bottom of the plate and replaced with 30 μL of fresh media containing 1.2× compounds in 0.1% DMSO. Cells were treated for 3 days in 37° C. CO2 incubator. On day 3, cells were fixed with Cytofix, permeabilized with 0.4% Triton-X-100/Cytofix, and washed with D-PBS without Ca/Mg. Cells were blocked with Licor Odessey blocking reagent for one hour at room temperature, followed by incubation with anti-SDMA (1:1000) antibody at 4° C. overnight. 1° antibody was removed, followed by three washings with DPBS without Ca/Mg and 0.05% Tween20. Hoechst (5 μg/ml), Cell Mask deep stain (1:2000) and Alexa488-conjugated goat anti-rabbit IgG (2 μg/mL) was added for 1 hour at room temperature. A final washing step (three washes) was performed before sealing plate for imaging on In Cell Analyzer 2200. Images from analyzer were uploaded to Columbus (at WP) for image analysis. IC50 values were determined by 4 parameters robust fit of percent fluorescence units vs. (Log10) compound concentrations.

[4] = target: Full-length PRMT5 enzyme co-expressed with His6-MEP50 (Homo sapiens (Human), UniProt O14744); assay: PRMT5 Biochemical Assay (Transcreener EPIGEN methyltransferase, fluorescence polarisation); settings: histone H4 derived peptide substrate 1 μM, 1 μM S-Adenosyl methionine, 4 hours at 37 degree Celsius
Chain of Full-length PRMT5 enzyme co-expressed with His6-MEP50 (O14744 whole entry): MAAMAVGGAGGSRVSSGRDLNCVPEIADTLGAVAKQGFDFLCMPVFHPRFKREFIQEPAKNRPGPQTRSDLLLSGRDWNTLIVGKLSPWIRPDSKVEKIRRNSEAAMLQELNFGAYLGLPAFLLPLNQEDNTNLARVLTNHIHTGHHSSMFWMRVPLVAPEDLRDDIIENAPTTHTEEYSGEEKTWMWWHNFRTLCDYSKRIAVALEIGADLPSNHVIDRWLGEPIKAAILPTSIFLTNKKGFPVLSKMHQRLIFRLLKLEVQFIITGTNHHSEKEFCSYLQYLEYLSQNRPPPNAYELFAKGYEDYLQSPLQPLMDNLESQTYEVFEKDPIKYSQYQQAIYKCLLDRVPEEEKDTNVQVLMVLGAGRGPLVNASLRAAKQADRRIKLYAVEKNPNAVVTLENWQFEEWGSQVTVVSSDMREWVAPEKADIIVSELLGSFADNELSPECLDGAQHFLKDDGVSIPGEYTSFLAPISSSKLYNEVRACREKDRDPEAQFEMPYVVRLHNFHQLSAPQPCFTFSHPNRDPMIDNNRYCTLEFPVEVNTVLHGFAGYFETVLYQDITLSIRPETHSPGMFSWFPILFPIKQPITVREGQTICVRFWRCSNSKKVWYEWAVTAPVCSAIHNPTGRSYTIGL
Chain of Full-length PRMT5 enzyme co-expressed with His6-MEP50 (Q9BQA1 whole entry partner): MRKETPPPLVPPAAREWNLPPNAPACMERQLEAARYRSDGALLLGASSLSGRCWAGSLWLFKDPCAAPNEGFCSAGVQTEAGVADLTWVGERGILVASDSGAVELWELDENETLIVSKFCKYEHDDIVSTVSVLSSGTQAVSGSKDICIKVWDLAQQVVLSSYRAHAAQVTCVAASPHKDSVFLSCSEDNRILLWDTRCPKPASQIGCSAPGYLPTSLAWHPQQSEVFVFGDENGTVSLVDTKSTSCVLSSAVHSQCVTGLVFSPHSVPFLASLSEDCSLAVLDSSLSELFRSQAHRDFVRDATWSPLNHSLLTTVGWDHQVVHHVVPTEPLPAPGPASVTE
Method: Compounds of the Invention may be Tested for In Vitro Activity in the Following Assay:
A histone H4 derived peptide is used as substrate (amino acid sequence: […]NH2). Full-length PRMT5 enzyme (NCBI Reference sequence NP_006100.2) was co-expressed with His6-MEP50 in insect cells and purified via Nickel immobilized metal affinity and gel filtration chromatography (“the enzyme”).
The 6 μL reactions are run in Greiner brand black 384-well low volume assay plates. All reactions contained assay buffer (phosphate buffered saline, 0.01% (v/v) Tween-20, 0.01% (w/v) albumin from chicken egg white, 1 mM Dithiothreitol, 1 μM peptide substrate, 1 μM S-Adenosyl methionine, and 15 ng/reaction enzyme, with the enzyme being omitted from negative control reactions. Compounds were added in a volume of 100 nL from dilution series prepared in DMSO, positive and negative control reactions receiving the same volume DMSO without compound. The plates were sealed with adhesive seals and incubated for 4 hours at 37 degree Celsius. Reaction progress was measured using the Transcreener™ EPIGEN methyltransferase assay (BellBrook Labs, Madison, Wis.) as recommended by the manufacturer. To each reaction 2 μL detection mix were added, containing coupling enzymes, fluorescence polarisation tracer, and AMP antibody. Plates were incubated for 90 minutes before being read on a Perkin Elmer EnVision™ plate reader in fluorescence polarisation mode. IC50 values were obtained from the raw readings by calculating percent inhibition (% I) for each reaction relative to controls on the same plate (% I=(I−CN)/(CP−CN) where CN/CP are the averages of the negative/positive reactions, respectively), then fitting the % I data vs. compound concentration [I] to % I=(A+((B−A)/(1+((C/[I])^D)))) where A is the lower asymptote, B is the upper asymptote, C is the IC50 value, and D is the slope.

Chain of Full-length (FL)-PRMT5-MEP50 enzyme complex (O14744 whole entry): as the sequence (O14744 whole entry) above
Chain of Full-length (FL)-PRMT5-MEP50 enzyme complex (Q9BQA1 whole entry partner): as the sequence (Q9BQA1 whole entry partner) above

CCOc1cc(C(=O)N2C3CCC2COC3)ccc1C(=O)NC[C@@H](O)[C@@H]1Cc2ccc(OC)cc2CN1 [Example 1, 4-(3-Oxa-8-azabicyclo[3.2.1]octane-8-carbonyl)-2-ethoxy-N—((R)-2-hydroxy-2-((S)-7-methoxy-1,2,3,4-tetrahydroisoquinolin-3-yl)ethyl)benzamide]
EC50 ([1]; Enzyme Methylation Assay (EC50—1, nM), first EC50 of biphasic fit): 0.27 nM
EC50 ([1]; Enzyme Methylation Assay (EC50—2, nM), second EC50 of biphasic fit): 5 nM
IC50 [2]: 0.19 nM
EC50 [3]: 19 nM
IC50 [4]: 15 nM
